Earlier results, collected in patent publication US6514973B1, “Compositions for the treatment and prevention of neurological and pathopsychological diseases” (Merck Patent Geseilschaft Mit Beschrankter Haftung, priority 1998, dated 2003).

Phosphatidylserines
time until appearance in the blood after oral administration: about 30 minutes
